{
  "source": "paper PMC3502511",
  "about": "“Inhibition of the Prokaryotic Pentameric Ligand-Gated Ion Channel ELIC by Divalent Cations” (PLoS Biology, 2012)",
  "type_in_all_cases": "cell-based, Erwinia chrysanthemi",
  "key": {"ELIC WT [1]": {"molecular_target": "T1, ELIC WT (Dickeya chrysanthemi, UniProt P0C7B7, INS163G)", "T1 construct": "expressed in transfected cells; host or cells: X. laevis oocytes (cRNA injection, pTLN vector)", "experiment": "cell-based", "conditions": "WT; for Slope: Schild plot slope", "protocol": "(§1) Constructs containing the gene of either the WT or mutant channels preceded by the signal sequence of the chicken α7nAchR were cloned into the pTLN vector for expression in X. laevis oocytes. After linearization of the plasmid DNA by MluI, capped complementary RNA was transcribed with the mMessage mMachine kit (Ambion) and purified with the RNeasy kit (Qiagen). For expression, 1–50 ng of RNA was injected into defolliculated oocytes. Two-electrode voltage clamp measurements were performed 1 d after injection at 20°C (OC-725B, Warner Instrument Corp.). Currents were recorded in bath solutions containing 10 mM HEPES (pH 7), 130 mM NaCl, and the indicated concentrations of cysteamine and divalent cations. In case of solutions containing Zn^2+, cysteamine was replaced by propylamine. The membrane potential in all dose–response measurements was set to −40 mV. As ELIC is permeable to divalent cations, we tested if endogenous calcium-activated chloride channels affected our measurements. To chelate intracellular calcium ions, the oocytes were incubated for 15 to 30 min in bath solutions lacking divalent ions but containing 10 µM BAPTA-AM."}, "ELIC R91A": {"molecular_target": "T2, ELIC R91A (Dickeya chrysanthemi, UniProt P0C7B7, INS163G/R91A)", "T2 construct": "expressed in transfected cells; host or cells: X. laevis oocytes", "experiment": "Two-electrode voltage clamp, ELIC R91A in oocytes", "conditions": "R91A", "protocol": "as §1"}, "ELIC D113A/D158A": {"molecular_target": "T3, ELIC D113A/D158A (Dickeya chrysanthemi, UniProt P0C7B7, D113A/D158A/INS163G)", "T3 construct": "expressed in transfected cells; host or cells: X. laevis oocytes", "experiment": "cell-based", "conditions": "agonist propylamine; for EC50: 113A/158A", "protocol": "as §1"}, "ELIC WT [2]": {"molecular_target": "T4, ELIC WT (Dickeya chrysanthemi, UniProt P0C7B7)", "T4 construct": "expressed in transfected cells; host or cells: X. laevis oocytes (cRNA injection, pTLN vector)", "experiment": "cell-based", "conditions": "WT, agonist propylamine", "protocol": "as §1"}, "ELIC H168A": {"molecular_target": "T5, ELIC H168A (Dickeya chrysanthemi, UniProt P0C7B7, H168A/INS163G)", "T5 construct": "expressed in transfected cells; host or cells: X. laevis oocytes", "experiment": "Two-electrode voltage clamp, ELIC H168A in oocytes", "conditions": "agonist propylamine", "protocol": "as §1"}, "ELIC H176A": {"molecular_target": "T6, ELIC H176A (Dickeya chrysanthemi, UniProt P0C7B7, H176A/INS163G)", "T6 construct": "expressed in transfected cells; host or cells: X. laevis oocytes", "experiment": "Two-electrode voltage clamp, ELIC H176A in oocytes", "conditions": "agonist propylamine", "protocol": "as §1"}, "ELIC": {"molecular_target": "T7, ELIC (Dickeya chrysanthemi, UniProt P0C7B7, INS163G)", "T7 construct": "expressed in transfected cells; host or cells: HEK 293 cells (ATCC CRL-1573), pcDNA3", "experiment": "Agonist concentration jumps, outside-out patches from HEK 293 cells expressing ELIC", "protocol": "Human embryonic kidney 293 cells (American Type Culture Collection-CRL-1573;LGC Promochem) were maintained at 37°C in a 95% air/5% CO2 incubator in DMEM supplemented with 0.11 g/l sodium pyruvate, 10% (v/v) heat-inactivated fetal bovine serum, 100 U/ml penicillin G, 100 µg/ml streptomycin sulfate, and 2 mM L-glutamine (Invitrogen). Cells (passaged every 2 d, up to 30 times) were plated and transfected by calcium phosphate-DNA coprecipitation, with a total amount of DNA of 3 µg/dish (82% ELIC and 18% eGFP DNA, both subcloned in pcDNA3).\nCells were bathed in an extracellular solution containing (mM): 150 KCl, 0.05 or 0.2 CaCl2, and 10 HEPES, pH adjusted to 7.4 with KOH (osmolarity 310 mOsm). Patch pipettes were pulled from thick-walled borosilicate glass (GC150F; Harvard Apparatus) and fire polished to a resistance of 8–12 MΩ. Intracellular solution contained (mM): 150 KCl, 0.5 CaCl2, 5 EGTA, and 10 HEPES, pH adjusted to 7.4 with KOH. Agonist-evoked currents were recorded at 20°C with an Axopatch 200B amplifier (Molecular Devices) from outside-out patches held at −100 mV. Patches were stepped to this holding voltage 0.2 s before the agonist was applied and otherwise held at −40 mV. No correction for junction potential was applied (calculated value 0.2 mV). Currents were filtered at 5 kHz, digitized at 50 kHz with Digidata 1322A, and saved directly on computer with Clampex software (all MDS Analytical Technologies).\nAll concentration jumps were performed using a piezo stepper (Burleigh instruments) with an application tool made from theta tube glass (Hilgenberg; final tip diameter, 150 µm). Voltage commands for the piezo stepper were 200 ms square pulses conditioned by low-pass eight-pole Bessel filtering (−3 dB frequency 5 kHz) to smooth oscillations. Actual exchange time was estimated by recording the open-tip response to the application of diluted extracellular solution (70% water) after rupture of the patch. Only patches in which the 20%–80% exchange time was faster than 250 µs were included in the analysis.\nAgonist solutions were freshly prepared every day from 1 M stock solutions. Propylamine was applied at a concentration known to elicit maximum response (20 mM and 50 mM, for 50 and 200 µM Ca^2+, respectively). Traces shown are averages of 5 or 10 individual agonist currents, separated by at least 10 s. Responses were averaged, and the time course of activation and deactivation (between 95% and 5% of the peak current level) was fitted with one exponential component (program Clampfit 9.0)."}, "[3]": {"conditions": "Ca^2+ 50 µM, propylamine 20 mM (last line, repeat)"}, "[4]": {"conditions": "Ca^2+ 50 µM, propylamine 20 mM, −100 mV (first line)"}, "[5]": {"conditions": "Ca^2+ 200 µM, propylamine 20 mM"}, "[6]": {"conditions": "Ca^2+ 200 µM, propylamine 50 mM"}},
  "note": "Where two headings read alike, the source gives them in different places.",
  "data": [
    {"smiles": "[Sr+2]", "note": "[Sr^2+]", "values": [
      {"measurement": "Ki", "setting": "ELIC WT [1]; Schild analysis, agonist cysteamine, read-out: Ki app", "value": 850, "unit": "µM"},
      {"measurement": "Slope", "setting": "ELIC WT [1]; agonist cysteamine", "value": "0.9±0.02"},
      {"measurement": "pA", "setting": "ELIC WT [1]; Schild plot x-intercept (log of mM), agonist cysteamine, −40 mV", "value": "−0.07±0.02"}
    ]},
    {"smiles": "C[N+](C)(C)C", "note": "[TMA, tetramethylammonium]", "values": [
      {"measurement": "Ki", "setting": "ELIC R91A; Schild analysis, read-out: Ki app", "value": 6, "unit": "mM"},
      {"measurement": "Slope", "setting": "ELIC R91A; Schild plot slope", "value": "0.8±0.1"},
      {"measurement": "pA", "setting": "ELIC R91A; agonist cysteamine", "value": "0.78±0.18"}
    ]},
    {"smiles": "[Zn+2]", "note": "[Zn^2+, zinc]", "values": [
      {"measurement": "modulation in the double mutant", "setting": "ELIC D113A/D158A; D113A/D158A", "value": "abolish"},
      {"measurement": "Ki", "setting": "ELIC WT [1]; Schild analysis, agonist propylamine, read-out: Ki app", "value": 7, "unit": "µM"},
      {"measurement": "Slope", "setting": "ELIC WT [1]; agonist propylamine", "value": "1.2±0.01"},
      {"measurement": "pA", "setting": "ELIC WT [1]; Schild plot x-intercept, agonist propylamine", "value": "−2.16±0.13"},
      {"measurement": "Ki", "setting": "ELIC WT [1]; agonist propylamine, read-out: Schild plot x-intercept", "value": 8, "unit": "µM"}
    ]},
    {"smiles": "CCCN", "note": "[propylamine]", "values": [
      {"measurement": "EC50", "setting": "ELIC D113A/D158A; Zn^2+ 0 mM", "value": 3.7, "unit": "mM"},
      {"measurement": "EC50", "setting": "ELIC D113A/D158A; Zn^2+ 0.01 mM", "value": 4.56, "unit": "mM"},
      {"measurement": "EC50", "setting": "ELIC D113A/D158A; Zn^2+ 0.1 mM", "value": 4.22, "unit": "mM"},
      {"measurement": "EC50", "setting": "ELIC WT [2]; Zn^2+ 0.01 mM", "value": 0.92, "unit": "mM"},
      {"measurement": "EC50", "setting": "ELIC WT [2]; Zn^2+ 0.05 mM", "value": 3.72, "unit": "mM"},
      {"measurement": "EC50", "setting": "ELIC WT [2]; Zn^2+ 0.1 mM", "value": 10.1, "unit": "mM"},
      {"measurement": "EC50", "setting": "ELIC H168A; Zn^2+ 0 mM", "value": 0.67, "unit": "mM"},
      {"measurement": "EC50", "setting": "ELIC H168A; Zn^2+ 0.01 mM", "value": 1.17, "unit": "mM"},
      {"measurement": "EC50", "setting": "ELIC H168A; Zn^2+ 0.05 mM", "value": 4.82, "unit": "mM"},
      {"measurement": "EC50", "setting": "ELIC H168A; Zn^2+ 0.1 mM", "value": 12.2, "unit": "mM"},
      {"measurement": "EC50", "setting": "ELIC H176A; Zn^2+ 0 mM", "value": 5.16, "unit": "mM"},
      {"measurement": "EC50", "setting": "ELIC H176A; Zn^2+ 0.01 mM", "value": 11.9, "unit": "mM"},
      {"measurement": "EC50", "setting": "ELIC H176A; Zn^2+ 0.025 mM", "value": 25.5, "unit": "mM"},
      {"measurement": "τdecay", "setting": "ELIC; [3]", "value": "33.5 ± 6.9", "unit": "ms"},
      {"measurement": "τrise", "setting": "ELIC; [3]", "value": "19.6 ± 3.1", "unit": "ms"},
      {"measurement": "τdecay", "setting": "ELIC; [4]", "value": "34.7 ± 5.6", "unit": "ms"},
      {"measurement": "τrise", "setting": "ELIC; [4]", "value": "16.7 ± 1.5", "unit": "ms"},
      {"measurement": "τdecay", "setting": "ELIC; [5]", "value": "23.9 ± 3.1", "unit": "ms"},
      {"measurement": "τrise", "setting": "ELIC; [5]", "value": "38.5 ± 6.7", "unit": "ms"},
      {"measurement": "τdecay", "setting": "ELIC; [6]", "value": "36.7 ± 12.7", "unit": "ms"},
      {"measurement": "τrise", "setting": "ELIC; [6]", "value": "16.4 ± 2.2", "unit": "ms"}
    ]}
  ]
}
